These results are taken from patent US7018993B2, “Antiandrogenic agent” (Chugai Seiyaku Kabushiki Kaisha, priority 2000, dated 2006).

Series [1] deals with T1, human androgen receptor (Homo sapiens, UniProt P10275).
T1 construct: expressed in transfected cells; host or cells: HeLa cells
T1 sequence (P10275 1-920): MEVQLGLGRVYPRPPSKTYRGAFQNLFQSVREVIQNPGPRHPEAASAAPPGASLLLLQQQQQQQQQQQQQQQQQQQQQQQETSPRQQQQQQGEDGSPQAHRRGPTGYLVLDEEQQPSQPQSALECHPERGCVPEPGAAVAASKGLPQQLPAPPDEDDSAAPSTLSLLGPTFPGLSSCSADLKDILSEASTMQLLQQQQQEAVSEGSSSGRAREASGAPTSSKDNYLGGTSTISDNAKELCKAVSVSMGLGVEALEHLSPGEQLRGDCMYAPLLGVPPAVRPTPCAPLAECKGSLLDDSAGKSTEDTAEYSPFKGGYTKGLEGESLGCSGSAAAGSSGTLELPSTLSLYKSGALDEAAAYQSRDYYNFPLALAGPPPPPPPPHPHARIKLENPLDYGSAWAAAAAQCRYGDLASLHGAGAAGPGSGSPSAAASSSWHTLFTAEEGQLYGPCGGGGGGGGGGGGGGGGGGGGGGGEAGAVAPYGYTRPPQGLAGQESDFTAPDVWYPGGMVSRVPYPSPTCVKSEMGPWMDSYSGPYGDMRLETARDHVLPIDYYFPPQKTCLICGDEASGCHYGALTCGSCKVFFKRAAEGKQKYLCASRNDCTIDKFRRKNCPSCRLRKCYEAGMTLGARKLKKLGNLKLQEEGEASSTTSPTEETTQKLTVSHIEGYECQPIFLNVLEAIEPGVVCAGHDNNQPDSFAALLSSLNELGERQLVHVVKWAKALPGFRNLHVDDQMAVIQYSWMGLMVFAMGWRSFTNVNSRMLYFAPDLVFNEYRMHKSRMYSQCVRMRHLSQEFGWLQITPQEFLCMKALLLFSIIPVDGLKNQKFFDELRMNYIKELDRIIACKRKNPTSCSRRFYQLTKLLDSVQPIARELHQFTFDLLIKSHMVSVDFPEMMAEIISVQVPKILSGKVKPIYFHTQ
In words: Androgen receptor reporter gene assay for antagonistic effects (inhibition of DHT-induced transcriptional activity, HeLa cells). It counts as cell-based. As for the experimental part: Twenty-four hours before transfection, 1.0×10^5 HeLa cells are cultured in a 12-well microplate containing phenol red-free DMEM/5% DCC-FBS. […] To effect this assay, reference may be made to J. Biol. Chem., vol. 270, p.
(§1) Twenty-four hours before transfection, 1.0×10^5 HeLa cells are cultured in a 12-well microplate containing phenol red-free DMEM/5% DCC-FBS.

The target in series [2] is T1, human androgen receptor. As to the kind of experiment: Androgen receptor reporter gene assay for agonistic effects (MMTV-Luc, HeLa cells). It counts as cell-based. To be noted: 10 μmol/L. As to the method: Twenty-four hours before transfection, 1.0×10^5 HeLa cells (purchased from Dainippon Pharmaceutical Co., Ltd.) are cultured in a 12-well microplate containing phenol red-free Dulbecco's Modified Eagle Medium (phenol red-free DMEM) supplemented with charcoal-treated FBS (DCC-FBS; 5%). […] To effect this assay, reference may be made to J. Biol. Chem., vol. 270, p.
as §1

The target of another series is androgen receptor (Homo sapiens, UniProt P10275). To be noted: 10 μmol/L; cited from earlier work.
The conditions of series [3]: prostate cancer patients undergoing treatment with flutamide; cited from earlier work.
A further series concerns prostate weight. The settings on record: castrated rats, continuous administration for two weeks; cited from earlier work.

Turning to `CN(C)C(=O)CCCOc1cc(O)cc(CCC[C@@H]2C[C@H]3CC(=O)CC[C@]3(C)[C@H]3CC[C@]4(C)[C@@H](O)CC[C@H]4[C@H]23)c1` [Compound from Example 3, 17β-Hydroxy-7α-(3-(3-hydroxy-5-(3-(N,N-dimethylaminocarbonyl)propoxy)phenyl)propyl)-5α-androstan-3-one], half-maximal inhibition at human androgen receptor [1] (IC50) was put at 392 nM.

Consider `CC(C)(O)C(=O)Nc1ccc([N+](=O)[O-])c(C(F)(F)F)c1` [Hydroxyflutamide, hydroxyflutamide], for which the agonistic effects result on human androgen receptor [2] is on record as “observed to have agonistic effects”. The “Luciferase activity (Relative activity)” value at human androgen receptor [1] (1.0 μmol/L compound with 0.1 nmol/L DHT, 48 h, activity given by 0.1 nmol/L DHT set to 100) is 29.0 (<50.0). In addition, the “transcriptional activity of androgen receptor” value at androgen receptor is listed as “enhance the transcriptional activity”. Besides, in series [3], the blood hydroxyflutamide levels result is recorded as “several”.

Consider `CC(=O)O[C@]1(C(C)=O)CC[C@H]2[C@@H]3C=C(Cl)C4=CC(=O)CC[C@]4(C)[C@H]3CC[C@@]21C` [chlormadinone acetate], for which the prostate weight entry in the series with prostate weight is on record as “increase in their prostate weight”.

With `CC(=O)O[C@]1(C(C)=O)CC[C@H]2[C@@H]3C=C(Cl)C4=CC(=O)[C@@H]5C[C@@H]5[C@]4(C)[C@H]3CC[C@@]21C` [cyproterone acetate], the prostate weight result in the series on prostate weight was “increase in their prostate weight”.
